Legend:
[1] = biological target: rRNA adenine N-6-methyltransferase (Bacillus subtilis, UniProt P13956); test: Inhibition of Bacillus subtilis ErmC' methyltransferase
Escherichia coli [2] = test: Antimicrobial activity against Escherichia coli ATCC 25922 assessed as bacterial growth inhibition; assay type: functional
Klebsiella pneumoniae = test: Antibacterial activity against Klebsiella pneumoniae ATCC 10031 assessed as reduction in microbial growth; assay type: functional
Escherichia coli [3] = test: Antibacterial activity against Escherichia coli ATCC 8730 assessed as bacterial growth inhibition; assay type: functional
Enterobacter cloacae = test: Antibacterial activity against Enterobacter cloacae ATCC 29893 assessed as reduction in microbial growth; assay type: functional
Klebsiella aerogenes = test: Antibacterial activity against Enterobacter aerogenes ATCC 13048 assessed as reduction in bacterial growth; assay type: functional
Citrobacter amalonaticus = test: Antibacterial activity against Citrobacter amalonaticus assessed as reduction in microbial growth; assay type: functional
Escherichia coli [4] = test: Antimicrobial activity against Escherichia coli ATCC 8739 assessed as reduction in bacterial growth; assay type: functional
[5] = Binding affinity to Enterococcus faecalis ErmAM methyltransferase assessed as inhibition constant
[6] = biological target: T1, Catechol O-methyltransferase (Homo sapiens, UniProt P21964); test: Inhibition of S-COMT (unknown origin)
T1 sequence (P21964 whole entry): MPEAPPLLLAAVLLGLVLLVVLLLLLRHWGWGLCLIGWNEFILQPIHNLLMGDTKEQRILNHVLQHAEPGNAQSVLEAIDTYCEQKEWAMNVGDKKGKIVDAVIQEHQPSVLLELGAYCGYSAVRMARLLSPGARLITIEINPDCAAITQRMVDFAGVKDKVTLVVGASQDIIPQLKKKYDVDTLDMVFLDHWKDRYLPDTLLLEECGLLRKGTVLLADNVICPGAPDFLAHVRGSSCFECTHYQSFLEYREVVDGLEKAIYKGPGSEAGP

Acinetobacter baumannii = test: Antibacterial activity against Acinetobacter baumannii assessed as reduction in bacterial growth by broth microdilution method; assay type: functional

Sequence of rRNA adenine N-6-methyltransferase (P13956 whole entry): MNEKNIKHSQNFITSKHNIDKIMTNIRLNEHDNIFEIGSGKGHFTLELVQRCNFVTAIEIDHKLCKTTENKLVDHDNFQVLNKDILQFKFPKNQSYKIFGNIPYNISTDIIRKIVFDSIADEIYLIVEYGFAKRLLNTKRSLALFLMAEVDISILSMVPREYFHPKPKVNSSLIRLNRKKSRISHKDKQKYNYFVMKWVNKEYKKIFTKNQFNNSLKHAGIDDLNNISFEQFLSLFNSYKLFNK

Cc1ccc(Sc2cc(C)c(C#N)c(Sc3ccc(C)cc3)n2)cc1
IC50 [1]: 180 µM

NC[C@H]1O[C@H](O[C@H]2[C@H](O)[C@@H](O[C@H]3O[C@H](CO)[C@@H](O)[C@H](N)[C@H]3O)[C@H](N)C[C@@H]2N)[C@H](O)[C@@H](O)[C@@H]1O [KANAMYCIN]
MIC (Escherichia coli [2]): > 256 µg/mL

GENTAMICIN
MIC (Klebsiella pneumoniae): > 512 µg/mL | MIC (Escherichia coli [3]): > 512 µg/mL | MIC (Enterobacter cloacae): > 512 µg/mL | MIC (Klebsiella aerogenes): > 512 µg/mL | MIC (Escherichia coli [2]): > 256 µg/mL | MIC (Citrobacter amalonaticus): > 512 µg/mL

NC[C@@H]1O[C@H](O[C@H]2[C@@H](O)[C@H](O[C@@H]3[C@@H](O)[C@H](N)C[C@H](N)[C@H]3O[C@H]3O[C@H](CN)[C@@H](O)[C@H](O)[C@H]3N)O[C@@H]2CO)[C@H](N)[C@@H](O)[C@@H]1O [FRAMYCETIN]
MIC (Escherichia coli [4]): > 256 µg/mL

Nc1nc(NC2Cc3ccccc3C2)nc(N2CCC(C(=O)NCCc3c[nH]c4ccccc34)CC2)n1
Ki [5]: 2 µM

O=C(Nc1cccc(-c2nc3ccccc3[nH]2)c1)c1ccccc1
IC50 [6]: 26 µM

Cc1ccc(Nc2ncc(C(=O)N3CCN(c4ccc(C(F)(F)F)cn4)CC3)s2)nc1
IC50 [1]: 116 µM

C(=N\Nc1ncnc2c1nnn2Cc1ccccc1)/c1ccccc1
IC50 [1]: 250 µM

O=C1c2ccccc2C(=O)N1CN(CCCn1ccnc1)CN1C(=O)c2ccccc2C1=O
IC50 [1]: 300 µM

OC[C@H]1O[C@@H](n2cnc3c(NC4CCCC4)ncnc32)[C@H](O)[C@@H]1O [N6-CYCLOPENTYLADENOSINE]
IC50 [1]: 80 µM

O=C(c1cnc(Nc2ncccn2)s1)N1CCN(c2ccc(C(F)(F)F)cn2)CC1
IC50 [1]: 110 µM

NCC[C@H](O)C(=O)N[C@@H]1C[C@H](N)[C@@H](O[C@H]2O[C@H](CN)[C@@H](O)[C@H](O)[C@H]2O)[C@H](O)[C@H]1O[C@H]1O[C@H](CO)[C@@H](O)[C@H](N)[C@H]1O [AMIKACIN]
MIC (Klebsiella pneumoniae): > 512 µg/mL | MIC (Escherichia coli [3]): > 512 µg/mL | MIC (Enterobacter cloacae): > 512 µg/mL | MIC (Klebsiella aerogenes): > 512 µg/mL | MIC (Acinetobacter baumannii): > 256 µg/mL | MIC (Citrobacter amalonaticus): > 512 µg/mL

O=C(c1c[nH]c(=O)[nH]1)N1CCN(c2ccc(C(F)(F)F)cn2)CC1
IC50 [1]: 100 µM

NC[C@H]1O[C@H](O[C@H]2[C@H](O)[C@@H](O[C@H]3O[C@H](CO)[C@@H](O)[C@H](N)[C@H]3O)[C@H](N)C[C@@H]2N)[C@H](N)C[C@@H]1O [TOBRAMYCIN]
MIC (Klebsiella pneumoniae): > 512 µg/mL | MIC (Escherichia coli [3]): > 512 µg/mL | MIC (Enterobacter cloacae): > 512 µg/mL | MIC (Klebsiella aerogenes): > 512 µg/mL | MIC (Citrobacter amalonaticus): > 512 µg/mL

Nc1cccc(-c2nc(N)nc(NC3Cc4ccccc4C3)n2)c1
Ki [5]: 4 µM

COc1ccc(C(=O)Nc2cccc(-c3nc4ccccc4[nH]3)c2)cc1
IC50 [6]: 73 µM

Source: ChEMBL document CHEMBL5257111, “Ribosome-targeting antibiotics and resistance via ribosomal RNA methylation” (RSC Med Chem, 2023)
